A short description of data set [1]: Oral bioavailability in cynomolgus monkey at 10 mg/kg. The data set is classed as ADME, organism-based, Macaca fascicularis. To be noted: in vivo.
A short description of data set [2]: Clearance in cynomolgus monkey at 10 mg/kg, iv. The data set is classed as ADME, organism-based, Macaca fascicularis. Also noted: dose 10 mg/kg, route intravenous. To be noted: in vivo.
Data set [3] can be described thus: Oral bioavailability in Sprague-Dawley rat at 10 mg/kg. The data set is classed as ADME, organism-based. The note with it: in vivo.
Data set [4] is described as follows: Cmax in cynomolgus monkey at 10 mg/kg, po. Details: dose 10 mg/kg, route oral. In kind it is ADME, organism-based, Macaca fascicularis. The note with it: in vivo.
Data set [5] can be described thus: Volume of distribution in cynomolgus monkey at 10 mg/kg, iv. In kind it is ADME, organism-based, Macaca fascicularis. Also noted: dose 10 mg/kg, route intravenous. To be noted: in vivo.
Data set [6] is described as follows: Clearance in Sprague-Dawley rat at 10 mg/kg, iv. In kind it is ADME, organism-based. Also noted: dose 10 mg/kg, route intravenous. To be noted: in vivo.
A short description of data set [7]: Half life in Sprague-Dawley rat at 10 mg/kg, iv. Details: dose 10 mg/kg, route intravenous. To be noted: in vivo. The data set is classed as ADME, organism-based.
Data set [8] in a line: Cmax in Sprague-Dawley rat at 10 mg/kg, po or 10 mg/kg, iv. In kind it is ADME, organism-based. The note with it: in vivo.
Data set [9] is described as follows: Tmax in cynomolgus monkey at 10 mg/kg, po. The data set is classed as ADME, organism-based, Macaca fascicularis. The note with it: in vivo. Details: dose 10 mg/kg, route oral.
Data set [10] can be described thus: Lipophilicity, log D at pH 7.4. The data set is classed as physicochemical. The note with it: buffer.
Data set [11] can be described thus: Tmax in Sprague-Dawley rat at 10 mg/kg, po or 10 mg/kg, iv. The data set is classed as ADME, organism-based. The note with it: in vivo.
The nature of data set [12]: Half life in cynomolgus monkey at 10 mg/kg, iv. The data set is classed as ADME, organism-based, Macaca fascicularis. To be noted: in vivo. Details: dose 10 mg/kg, route intravenous.
A short description of data set [13]: AUC in cynomolgus monkey at 10 mg/kg, po. The note with it: plasma. In kind it is ADME, organism-based, Macaca fascicularis. Details: dose 10 mg/kg, route oral.
Data set [14] can be described thus: Volume of distribution in Sprague-Dawley rat at 10 mg/kg, iv. The data set is classed as ADME, organism-based. Also noted: dose 10 mg/kg, route intravenous. The note with it: in vivo.
Data set [15] can be described thus: AUC in Sprague-Dawley rat at 10 mg/kg, po. In kind it is ADME, organism-based. Also noted: dose 10 mg/kg, route oral. The note with it: plasma.
The nature of data set [16]: Dissociation constant, pKa of the compound. The data set is classed as physicochemical.

Turning to `O=C(O)CCCN[C@@H](Cn1c(=O)c(-c2ccccc2Cl)cn(Cc2c(F)cccc2C(F)(F)F)c1=O)c1ccccc1`, the bioavailability (usually dose-corrected exposure relative to a reference, in per cent) is 52.7% in [1] and 3% in data set [3]. The clearance (in general, the rate of elimination divided by the concentration) in [2] came to 7.9 mL/min/kg; in data set [6], 37.6 mL/min/kg. For the same compound, the Cmax (in general, the highest concentration seen after dosing) in [4] was 7870 ng/mL; in data set [8], 149 ng/mL. For the same compound, the volume of distribution (Vd) (in general, a proportionality between amount in the body and measured concentration, not a real space) in [5] worked out at 4.9 L/kg; in [14], 1.3 L/kg. Besides, the half-life (as a rule, the time in which the quantity being followed falls by half) is 24 min in data set [7] and 450 min in data set [12]. Moreover, the results for the time of peak concentration (Tmax) in data set [9] and in [11] were 37.8 min and 15 min, respectively. In addition, in [10], the pH-dependent lipophilicity (logD) – broadly, the decadic logarithm of the distribution of all forms, ionised or not, between an organic phase and buffer at a given pH – is 2.1. Besides, the exposure (AUC) (in general, the area under the concentration-time curve, a measure of exposure) in data set [13] came to 11100 ng·h/mL; in data set [15] it was 132 ng·h/mL.
Regarding `COc1cccc(-c2cn(Cc3c(F)cccc3C(F)(F)F)c(=O)n(C[C@H](NCCCC(=O)O)c3ccccc3)c2=O)c1F`, the bioavailability in [1] came out at 22.6%; in [3] it was 2.4%. Also, the clearance in data set [2] was determined as 20.9 mL/min/kg; in [6], 64.1 mL/min/kg. Besides, the Cmax in data set [4] turned out to be 2040 ng/mL; in data set [8], 77 ng/mL. The Vd came out at 1.8 L/kg in data set [5] and 1.7 L/kg in data set [14]. The pKa – broadly, the pH at which an ionisable group is half protonated – in data set [16] was 4.16. Further, the half-life in data set [7] is 18 min; in data set [12], 60 min. The figures for the Tmax in data set [9] and in data set [11] were 30 min and 15 min, respectively. The logD in data set [10] came to 1.8. Besides, the area under the curve (AUC) in data set [13] was found to be 1900 ng·h/mL; in data set [15] it was 63.3 ng·h/mL.

The values are drawn from ChEMBL document CHEMBL1150315, “Potent and orally bioavailable zwitterion GnRH antagonists with low CYP3A4 inhibitory activity” (Bioorg Med Chem Lett, 2008).
